Measurements taken from patent publication US8735584B2 (Merck Patent GmbH, priority 2008, dated 2014).

Assays:
Type in all cases: biochemical
GST-Aurora A = molecular target: T1, GST-Aurora A (Homo sapiens, UniProt O14965); experiment: Aurora A IC50, Caliper LC3000 mobility shift assay; details: LC3000 method; 15 uM ATP (the KM value); read-out: Aurora Kinase A Activity (IC50)
T1 construct: N-terminal GST fusion with full length Aurora A (1-403 amino acids); purchased Carna Biosciences 05-101
T1 sequence (O14965 1-403): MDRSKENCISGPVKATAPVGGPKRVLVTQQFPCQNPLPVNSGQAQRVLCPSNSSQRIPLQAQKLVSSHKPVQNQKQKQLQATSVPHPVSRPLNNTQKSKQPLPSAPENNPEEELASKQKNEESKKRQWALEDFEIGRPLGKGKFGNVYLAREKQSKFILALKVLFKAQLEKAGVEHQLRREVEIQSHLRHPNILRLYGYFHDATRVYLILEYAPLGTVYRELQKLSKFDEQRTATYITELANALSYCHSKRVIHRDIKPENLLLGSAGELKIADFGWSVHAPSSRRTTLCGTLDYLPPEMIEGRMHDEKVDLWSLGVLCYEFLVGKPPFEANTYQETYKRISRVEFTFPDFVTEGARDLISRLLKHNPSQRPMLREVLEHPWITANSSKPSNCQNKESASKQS
In short: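 GST-tagged full-length Aurora A (0.067 ng/ul) with 15 uM ATP (KM) and 1 uM FITC-LRRASLG peptide in 100 mM HEPES pH 7.5, 1 mM MgCl2, 1 mM DTT, Brij-35; 90 min at 25 C, EDTA stop. Off-chip mobility shift read of substrate-to-product conversion; IC50 from sigmoidal dose-response.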

p38a = molecular target: T2, p38a (Homo sapiens, UniProt Q16539); experiment: Desktop Profiler kinase panel, p38a; details: 10 micromolar concentration of the compound; read-out: Percent Inhibition p38a
T2 construct: purchased Caliper Life Sciences
Procedure: (§1) The Aurora assays described here are performed on two Caliper Life Sciences systems: the LC3000 and the Desktop Profiler. These provide data on enzyme activity via measurement of the relative amounts of phosphorylated or unphosphorylated fluorescently labelled substrate peptide at the end of an enzymatic reaction. These different states of peptide are resolved by applying a potential difference across the sample. The presence of the charged phosphate group on the product (as opposed to the substrate) causes a different peptide mobility between the two peptides. This is visualized by excitation of the fluorescent label on the substrate and product peptides and represented as peaks within the analysis software.
(§2) The Desktop Profiler utilizes the same principle as the LC3000 for calculating percentage conversion of a substrate to product. Caliper Life Sciences provides proprietary flash frozen pre-made 384 well plates containing selected kinases. Each column in the 384 well plate contains a particular selected kinase. A second plate, the ‘substrate plate’ contains a mix of fluorescently labeled peptide substrate and ATP. […]
(§3) Reading of the plate in the Profiler is identical to the LC3000, and the ratio between substrate and product peaks provides the activity of the enzyme in that well. […]

MET = molecular target: T3, MET (Homo sapiens, UniProt P08581); experiment: Desktop Profiler kinase panel, MET; details: 10 micromolar concentration of the compound; read-out: Percent Inhibition MET
T3 construct: purchased Caliper Life Sciences
Procedure: as §1, §2, §3

PKCz = molecular target: T4, PKCz (Homo sapiens, UniProt Q05513); experiment: Desktop Profiler kinase panel, PKCz; details: 10 micromolar concentration of the compound; read-out: Percent Inhibition PKCz
T4 construct: purchased Caliper Life Sciences
Procedure: as §1, §2, §3

T2 sequence (Q16539 whole entry): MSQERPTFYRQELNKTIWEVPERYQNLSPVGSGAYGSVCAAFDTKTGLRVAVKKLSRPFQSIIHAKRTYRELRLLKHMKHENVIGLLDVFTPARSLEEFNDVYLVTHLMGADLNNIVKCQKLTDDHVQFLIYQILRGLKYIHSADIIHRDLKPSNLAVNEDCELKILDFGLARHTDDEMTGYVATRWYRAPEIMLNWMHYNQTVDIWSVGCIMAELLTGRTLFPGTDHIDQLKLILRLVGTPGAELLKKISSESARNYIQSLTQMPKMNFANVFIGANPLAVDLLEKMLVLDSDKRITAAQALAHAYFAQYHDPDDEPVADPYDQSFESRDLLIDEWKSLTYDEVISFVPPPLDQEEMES
T3 sequence (P08581 25-1390): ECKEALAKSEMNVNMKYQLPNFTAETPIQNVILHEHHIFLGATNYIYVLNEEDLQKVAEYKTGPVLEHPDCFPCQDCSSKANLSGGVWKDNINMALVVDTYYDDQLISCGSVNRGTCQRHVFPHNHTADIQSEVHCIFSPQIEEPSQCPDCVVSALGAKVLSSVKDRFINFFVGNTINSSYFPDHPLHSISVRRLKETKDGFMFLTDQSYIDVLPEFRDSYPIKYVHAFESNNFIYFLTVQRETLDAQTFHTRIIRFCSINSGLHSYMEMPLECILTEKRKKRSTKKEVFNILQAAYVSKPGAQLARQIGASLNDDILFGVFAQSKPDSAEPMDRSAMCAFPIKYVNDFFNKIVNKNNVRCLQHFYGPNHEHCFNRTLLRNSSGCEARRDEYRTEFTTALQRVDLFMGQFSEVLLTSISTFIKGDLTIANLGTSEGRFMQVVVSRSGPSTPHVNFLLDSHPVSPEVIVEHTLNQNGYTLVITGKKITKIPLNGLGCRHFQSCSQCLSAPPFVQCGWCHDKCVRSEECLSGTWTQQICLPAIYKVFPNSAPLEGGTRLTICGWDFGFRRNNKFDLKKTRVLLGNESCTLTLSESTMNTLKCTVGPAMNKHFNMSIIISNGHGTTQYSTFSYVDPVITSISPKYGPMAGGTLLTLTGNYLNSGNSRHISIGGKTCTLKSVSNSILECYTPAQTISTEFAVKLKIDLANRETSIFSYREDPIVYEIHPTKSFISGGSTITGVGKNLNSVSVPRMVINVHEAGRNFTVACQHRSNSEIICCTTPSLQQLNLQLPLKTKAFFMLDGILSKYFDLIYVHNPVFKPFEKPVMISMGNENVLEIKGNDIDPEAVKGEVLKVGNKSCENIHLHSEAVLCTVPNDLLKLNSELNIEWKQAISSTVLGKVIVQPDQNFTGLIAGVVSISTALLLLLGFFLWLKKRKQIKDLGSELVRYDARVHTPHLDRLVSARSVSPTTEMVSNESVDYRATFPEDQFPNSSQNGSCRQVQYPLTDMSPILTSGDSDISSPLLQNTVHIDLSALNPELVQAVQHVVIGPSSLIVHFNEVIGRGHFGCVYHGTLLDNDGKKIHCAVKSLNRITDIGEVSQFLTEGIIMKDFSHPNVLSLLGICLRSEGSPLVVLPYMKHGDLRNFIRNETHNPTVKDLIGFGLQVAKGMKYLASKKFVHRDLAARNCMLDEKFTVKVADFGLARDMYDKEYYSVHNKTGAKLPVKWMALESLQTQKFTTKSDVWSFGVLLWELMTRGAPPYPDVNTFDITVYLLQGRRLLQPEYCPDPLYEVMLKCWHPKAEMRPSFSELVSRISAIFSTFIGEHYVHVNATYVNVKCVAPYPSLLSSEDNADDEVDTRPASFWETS
T4 sequence (Q05513 whole entry): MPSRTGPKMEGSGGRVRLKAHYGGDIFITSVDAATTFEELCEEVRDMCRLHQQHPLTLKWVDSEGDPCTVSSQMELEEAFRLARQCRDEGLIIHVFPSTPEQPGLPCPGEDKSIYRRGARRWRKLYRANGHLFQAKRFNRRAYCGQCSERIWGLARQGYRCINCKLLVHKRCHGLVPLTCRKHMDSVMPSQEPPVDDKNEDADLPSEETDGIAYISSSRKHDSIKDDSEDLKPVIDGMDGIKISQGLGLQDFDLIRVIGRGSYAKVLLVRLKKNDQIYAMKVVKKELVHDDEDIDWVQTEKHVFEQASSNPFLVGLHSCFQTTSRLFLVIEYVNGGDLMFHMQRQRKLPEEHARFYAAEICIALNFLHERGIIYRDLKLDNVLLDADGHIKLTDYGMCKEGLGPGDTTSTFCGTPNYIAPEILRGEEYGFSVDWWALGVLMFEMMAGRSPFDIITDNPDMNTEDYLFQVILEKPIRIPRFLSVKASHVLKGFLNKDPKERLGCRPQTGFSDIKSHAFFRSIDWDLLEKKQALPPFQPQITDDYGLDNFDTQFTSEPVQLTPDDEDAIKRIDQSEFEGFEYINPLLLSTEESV

| IC50 (GST-Aurora A) [nM] | inhibition at 10 µM (p38a) [%] | inhibition at 10 µM (MET) [%] | inhibition at 10 µM (PKCz) [%] | Compound |
| --- | --- | --- | --- | --- |
| > 100 | – | – | – | O=c1[nH]c2ncccc2c2cc(Nc3cccc(F)c3)ccc12 [Example 31, 9-(3-Fluoro-phenylamino)-5H-benzo[c][1,8]naphthyridin-6-one] |
| – | 50 to 70 | > 90 | 50 to 70 | CC(=O)Nc1ccc(Oc2ccc3c(=O)[nH]c4ncccc4c3c2)cc1 [Example 81, N-[4-(6-Oxo-5,6-dihydro-benzo[c][1,8]naphthyridin-9-yloxy)-phenyl]-acetamide] |
